Experimental data reported in ChEMBL document CHEMBL5608186, “Design, synthesis and structure-activity relationships of novel non-ketolides: 9-Oxime clarithromycin featured with seven-to thirteen-atom-length diamine linkers at 3-OH” (Eur J Med Chem, 2024).
Values after ≈ are worked out from the molar mass of the structure shown.

Legend:
Format in all cases: functional
[1] = system: Staphylococcus aureus; assay: Bactericidal activity against methicillin-resistant Staphylococcus aureus PU 32 harboring i-ermA gene incubated for 16 to 20 hrs by CLSI based broth microdilution method; conditions: time 16-20 hrs
[2] = system: Streptococcus pneumoniae; assay: Selectivity ratio of MBC for Streptococcus pneumoniae 07P390 harboring c-erm gene to MIC for Streptococcus pneumoniae 07P390 harboring c-erm gene
[3] = system: Streptococcus pneumoniae; assay: Bactericidal activity against Streptococcus pneumoniae ATCC 49619 incubated for 16 to 20 hrs by CLSI based broth microdilution method; conditions: time 16-20 hrs
[4] = system: Streptococcus pneumoniae; assay: Bactericidal activity against Streptococcus pneumoniae PU 09 harboring mef gene incubated for 16 to 20 hrs by CLSI based broth microdilution method; conditions: time 16-20 hrs
[5] = system: Streptococcus pneumoniae; assay: Antibacterial activity against Streptococcus pneumoniae 07P390 harboring c-erm gene incubated for 16 to 20 hrs by CLSI based broth microdilution method; conditions: time 16-20 hrs
[6] = system: Staphylococcus aureus; assay: Selectivity ratio of MBC for methicillin-resistant Staphylococcus aureus PU 32 harboring i-ermA gene to MIC for methicillin-resistant Staphylococcus aureus PU 32 harboring i-ermA gene
[7] = system: Streptococcus pneumoniae; assay: Antibacterial activity against Streptococcus pneumoniae ATCC 49619 incubated for 16 to 20 hrs by CLSI based broth microdilution method; conditions: time 16-20 hrs
[8] = system: Staphylococcus aureus; assay: Antibacterial activity against methicillin-resistant Staphylococcus aureus PU 20 harboring c-ermA gene incubated for 16 to 20 hrs by CLSI based broth microdilution method; conditions: time 16-20 hrs
[9] = system: Haemophilus influenzae; assay: Bactericidal activity against Haemophilus influenzae ATCC 49247 incubated for 16 to 20 hrs by CLSI based broth microdilution method; conditions: time 16-20 hrs
[10] = system: Haemophilus influenzae; assay: Selectivity ratio of MBC for Haemophilus influenzae ATCC 49247 to MIC for Haemophilus influenzae ATCC 49247
[11] = system: Streptococcus pneumoniae; assay: Bactericidal activity against Streptococcus pneumoniae 07P390 harboring c-erm gene incubated for 16 to 20 hrs by CLSI based broth microdilution method; conditions: time 16-20 hrs
[12] = system: Streptococcus pyogenes; assay: Selectivity ratio of MBC for Streptococcus pyogenes 01-968 harboring i-ermB gene to MIC for Streptococcus pyogenes 01-968 harboring i-ermB gene
[13] = system: Streptococcus pneumoniae; assay: Antibacterial activity against Streptococcus pneumoniae PU 09 harboring mef gene incubated for 16 to 20 hrs by CLSI based broth microdilution method; conditions: time 16-20 hrs
[14] = system: Streptococcus pneumoniae; assay: Selectivity ratio of MBC for Streptococcus pneumoniae PU 09 harboring mef gene to MIC for Streptococcus pneumoniae PU 09 harboring mef gene
[15] = system: Streptococcus pyogenes; assay: Antibacterial activity against Streptococcus pyogenes 01-968 harboring i-ermB gene incubated for 16 to 20 hrs by CLSI based broth microdilution method; conditions: time 16-20 hrs
[16] = system: Staphylococcus aureus; assay: Antibacterial activity against methicillin-resistant Staphylococcus aureus PU 32 harboring i-ermA gene incubated for 16 to 20 hrs by CLSI based broth microdilution method; conditions: time 16-20 hrs
[17] = system: Streptococcus pyogenes; assay: Bactericidal activity against Streptococcus pyogenes 01-968 harboring i-ermB gene incubated for 16 to 20 hrs by CLSI based broth microdilution method; conditions: time 16-20 hrs
[18] = system: Streptococcus pneumoniae; assay: Selectivity ratio of MBC for Streptococcus pneumoniae ATCC 49619 to MIC for Streptococcus pneumoniae ATCC 49619
[19] = system: Haemophilus influenzae; assay: Antibacterial activity against Haemophilus influenzae ATCC 49247 incubated for 16 to 20 hrs by CLSI based broth microdilution method; conditions: time 16-20 hrs
[20] = system: Staphylococcus aureus; assay: Bactericidal activity against methicillin-resistant Staphylococcus aureus PU 20 harboring c-ermA gene incubated for 16 to 20 hrs by CLSI based broth microdilution method; conditions: time 16-20 hrs

Structure (SMILES)	MBC [1]	Selectivity ratio [2]	MBC [3]	MBC [4]	MIC [5]	Selectivity ratio [6]	MIC [7]	MIC [8]	MBC [9]	Selectivity ratio [10]	MBC [11]	Selectivity ratio [12]	MIC [13]	Selectivity ratio [14]	MIC [15]	MIC [16]	MBC [17]	Selectivity ratio [18]	MIC [19]	MBC [20]
CC[C@H]1OC(=O)[C@H](C)[C@@H](OC(=O)CCN2CCN(c3cc4c(cc3F)c(=O)c(C(=O)O)cn4CC)CC2)[C@H](C)[C@@H](O[C@@H]2O[C@H](C)C[C@H](N(C)C)[C@H]2O)[C@](C)(OC)C[C@@H](C)/C(=N\OCC#Cc2cncc(C(=O)NC)c2)[C@H](C)[C@H]2OC(=O)O[C@@]21C	> 256 µg/mL	>8	0.12 µg/mL (≈ 0.102 µM)	1 µg/mL (≈ 0.85 µM)	8 µg/mL (≈ 6.8 µM)	>4	0.12 µg/mL (≈ 0.102 µM)	> 256 µg/mL	16 µg/mL (≈ 13.6 µM)	1	> 64 µg/mL	>8	0.12 µg/mL (≈ 0.102 µM)	8	16 µg/mL (≈ 13.6 µM)	64 µg/mL (≈ 54.4 µM)	> 128 µg/mL	1	16 µg/mL (≈ 13.6 µM)	> 256 µg/mL
CC[C@H]1OC(=O)[C@H](C)[C@@H](OC(=O)CCNCCCCNc2cc3c(cc2F)c(=O)c(C(=O)O)cn3C2CC2)[C@H](C)[C@@H](O[C@@H]2O[C@H](C)C[C@H](N(C)C)[C@H]2O)[C@](C)(OC)C[C@@H](C)/C(=N\OC)[C@H](C)[C@H]2OC(=O)O[C@@]21C	8 µg/mL (≈ 7.75 µM)	2	0.125 µg/mL (≈ 0.121 µM)	0.5 µg/mL (≈ 0.484 µM)	8 µg/mL (≈ 7.75 µM)	2	0.062 µg/mL (≈ 0.0601 µM)	128 µg/mL (≈ 124 µM)	32 µg/mL (≈ 31 µM)	2	16 µg/mL (≈ 15.5 µM)	2	0.5 µg/mL (≈ 0.484 µM)	1	≤ 0.008 µg/mL	4 µg/mL (≈ 3.88 µM)	0.016 µg/mL (≈ 0.0155 µM)	2	16 µg/mL (≈ 15.5 µM)	> 256 µg/mL
CC[C@H]1OC(=O)[C@H](C)[C@@H](OC(=O)CCNCCCCNc2cc3c(cc2F)c(=O)c(C(=O)O)cn3C2CC2)[C@H](C)[C@@H](O[C@@H]2O[C@H](C)C[C@H](N(C)C)[C@H]2O)[C@](C)(OC)C[C@@H](C)/C(=N\OC/C=C/c2cncc(C(N)=O)c2)[C@H](C)[C@H]2OC(=O)O[C@@]21C	32 µg/mL (≈ 27.2 µM)	2	0.008 µg/mL (≈ 0.00679 µM)	0.008 µg/mL (≈ 0.00679 µM)	0.12 µg/mL (≈ 0.102 µM)	1	≤ 0.008 µg/mL	> 256 µg/mL	16 µg/mL (≈ 13.6 µM)	1	0.25 µg/mL (≈ 0.212 µM)	>8	≤ 0.008 µg/mL	–	0.25 µg/mL (≈ 0.212 µM)	32 µg/mL (≈ 27.2 µM)	> 2 µg/mL	>=1	16 µg/mL (≈ 13.6 µM)	> 256 µg/mL
CC[C@H]1OC(=O)[C@H](C)[C@@H](OC(=O)CCNCCCCNc2cc3c(cc2F)c(=O)c(C(=O)O)cn3C2CC2)[C@H](C)[C@@H](O[C@@H]2O[C@H](C)C[C@H](N(C)C)[C@H]2O)[C@](C)(OC)C[C@@H](C)/C(=N\OCC#Cc2cncc(NC(C)=O)c2)[C@H](C)[C@H]2OC(=O)O[C@@]21C	64 µg/mL (≈ 53.8 µM)	8	0.016 µg/mL (≈ 0.0134 µM)	0.03 µg/mL (≈ 0.0252 µM)	0.06 µg/mL (≈ 0.0504 µM)	2	0.016 µg/mL (≈ 0.0134 µM)	> 256 µg/mL	4 µg/mL (≈ 3.36 µM)	1	0.5 µg/mL (≈ 0.42 µM)	>8	0.03 µg/mL (≈ 0.0252 µM)	1	0.5 µg/mL (≈ 0.42 µM)	32 µg/mL (≈ 26.9 µM)	> 4 µg/mL	1	4 µg/mL (≈ 3.36 µM)	> 256 µg/mL
CC[C@H]1OC(=O)[C@H](C)[C@@H](OC(=O)CCNCCCCNc2cc3c(cc2F)c(=O)c(C(=O)O)cn3C2CC2)[C@H](C)[C@@H](O[C@@H]2O[C@H](C)C[C@H](N(C)C)[C@H]2O)[C@](C)(OC)C[C@@H](C)/C(=N\OCC#Cc2cncc(C(N)=O)c2)[C@H](C)[C@H]2OC(=O)O[C@@]21C	128 µg/mL (≈ 109 µM)	>8	0.008 µg/mL (≈ 0.0068 µM)	0.008 µg/mL (≈ 0.0068 µM)	0.06 µg/mL (≈ 0.051 µM)	2	≤ 0.008 µg/mL	128 µg/mL (≈ 109 µM)	2 µg/mL (≈ 1.7 µM)	1	> 0.5 µg/mL	>8	≤ 0.008 µg/mL	–	0.06 µg/mL (≈ 0.051 µM)	64 µg/mL (≈ 54.4 µM)	> 0.5 µg/mL	>=1	2 µg/mL (≈ 1.7 µM)	> 256 µg/mL
CC[C@H]1OC(=O)[C@H](C)[C@@H](OC(=O)CCN2CCN(c3cc4c(cc3F)c(=O)c(C(=O)O)cn4C3CC3)CC2)[C@H](C)[C@@H](O[C@@H]2O[C@H](C)C[C@H](N(C)C)[C@H]2O)[C@](C)(OC)C[C@@H](C)/C(=N\OCC#Cc2cncc(C(=O)NC)c2)[C@H](C)[C@H]2OC(=O)O[C@@]21C	> 256 µg/mL	8	0.25 µg/mL (≈ 0.21 µM)	0.5 µg/mL (≈ 0.421 µM)	4 µg/mL (≈ 3.37 µM)	>4	0.03 µg/mL (≈ 0.0252 µM)	> 256 µg/mL	4 µg/mL (≈ 3.37 µM)	1	32 µg/mL (≈ 26.9 µM)	>8	0.12 µg/mL (≈ 0.101 µM)	4	16 µg/mL (≈ 13.5 µM)	64 µg/mL (≈ 53.9 µM)	> 128 µg/mL	8	4 µg/mL (≈ 3.37 µM)	> 256 µg/mL
CC[C@H]1OC(=O)[C@H](C)[C@@H](OC(=O)CCNCCCCNc2cc3c(cc2F)c(=O)c(C(=O)O)cn3C2CC2)[C@H](C)[C@@H](O[C@@H]2O[C@H](C)C[C@H](N(C)C)[C@H]2O)[C@](C)(OC)C[C@@H](C)/C(=N\OC/C=C/c2cncc(C(=O)NC)c2)[C@H](C)[C@H]2OC(=O)O[C@@]21C	> 256 µg/mL	1	0.008 µg/mL (≈ 0.00671 µM)	0.06 µg/mL (≈ 0.0503 µM)	2 µg/mL (≈ 1.68 µM)	>8	≤ 0.008 µg/mL	> 256 µg/mL	4 µg/mL (≈ 3.35 µM)	2	2 µg/mL (≈ 1.68 µM)	>8	0.06 µg/mL (≈ 0.0503 µM)	1	0.12 µg/mL (≈ 0.101 µM)	32 µg/mL (≈ 26.8 µM)	> 1 µg/mL	>=1	2 µg/mL (≈ 1.68 µM)	> 256 µg/mL
CC[C@H]1OC(=O)[C@H](C)[C@@H](OC(=O)CCNCCCCNc2cc3c(cc2F)c(=O)c(C(=O)O)cn3C2CC2)[C@H](C)[C@@H](O[C@@H]2O[C@H](C)C[C@H](N(C)C)[C@H]2O)[C@](C)(OC)C[C@@H](C)/C(=N\OCC#Cc2cncc(C(=O)NC3CC3)c2)[C@H](C)[C@H]2OC(=O)O[C@@]21C	64 µg/mL (≈ 52.6 µM)	>8	0.008 µg/mL (≈ 0.00658 µM)	0.008 µg/mL (≈ 0.00658 µM)	0.03 µg/mL (≈ 0.0247 µM)	2	≤ 0.008 µg/mL	128 µg/mL (≈ 105 µM)	8 µg/mL (≈ 6.58 µM)	1	> 0.25 µg/mL	>8	≤ 0.008 µg/mL	–	0.06 µg/mL (≈ 0.0493 µM)	32 µg/mL (≈ 26.3 µM)	> 0.5 µg/mL	>=1	8 µg/mL (≈ 6.58 µM)	> 256 µg/mL
